Data from patent US10716313B2, “Ampicillin resistant texturizing lactic acid bacteria strains” (Chr. Hansen A/S, priority 2012, dated 2020).

System: Lactobacillus delbrueckii subsp. bulgaricus
Assay: Ampicillin growth reduction (OD600) in MRS broth
Type: cell-based
Conditions: at least 20 hours at 37° C., stated as typical
Procedure: In order to isolate ampicillin resistant mutants of the Lactobacillus delbrueckii subsp. bulgaricus strain CHCC13995, cells derived from the growth of a single colony were inoculated anaerobically into 10 ml MRS broth containing one of the following amounts of ampicillin, 0 ng/ml, 100 ng/ml, 200 ng/ml, 300 ng/ml, 400 ng/ml, 500 ng/ml, 600 ng/ml or 700 ng/ml, and grown for at least 20 hours at 37° C. After the 20 hours of growth OD600 is measured for all samples. Typically the concentration of ampicillin that reduces the OD600 measured anaerobic growth of Lactobacillus delbrueckii subsp. bulgaricus with at least 20% as compared to the growth in MRS medium without ampicillin (i.e. with 0 ng/ml ampicillin) is higher than 300 ng/ml. Cultures where the concentration of ampicillin was 500 ng/ml were diluted and plated on MRS agar plates with no ampicillin added and then incubated anaerobically for at least 20 hours at 37° C. Colonies were then picked and screened for anaerobic growth at 37° C. in microtiter plates in the presence of 500 ng/ml ampicillin. Typically, 25% of the resulting colonies were identified as fast growers in the presence of ampicillin. These were chosen for further study. The selected ampicillin resistant mutants were further purified and tested for their ability to grow in milk. […]

`CC1(C)S[C@@H]2[C@H](NC(=O)[C@H](N)c3ccccc3)C(=O)N2[C@H]1C(=O)O` [ampicillin] was tested, and the “concentration of ampicillin that reduces the OD600 measured anaerobic growth with at least 20% as compared to the growth in MRS medium without ampicillin” value was “higher than 300 ng/ml”.
